Experimental findings from PubChem BioAssay (NCI) are described below.

The structures appear in SMILES notation.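 48-hour exposure; five concentrations; linearly interpolated endpoints. Abbreviation: GI50, concentration required for 50% inhibition of growth. TGI: concentration producing complete growth inhibition.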 Where only a bound is given, the exact number is not on record here.

Some test systems named below: HL-60(TB) leukemia; SF-539 CNS; NCI-H460 lung; SF-295 CNS; OVCAR-3 ovarian; 786-0 renal; HCC-2998 colon; NCI-H23 lung; K-562 leukemia; SN12C renal.
What all share (assay): NCI-60 cell line screen, 48 h

As for `CS(=O)(=O)CCNCc1ccoc1-c1ccc2ncnc(Nc3ccc(OCc4ccccc4)cc3)c2c1`, the GI50 in the test with HL-60(TB) leukemia is 24.4 µM; in the test on SF-539 CNS, greater than 25 µM; in the test with NCI-H460 lung, 11.4 µM; in the test with SF-295 CNS, greater than 25 µM; in the test on OVCAR-3 ovarian it was greater than 25 µM; in the test on 786-0 renal, greater than 25 µM. Moreover, the GI50 is greater than 25 µM in the test with HCC-2998 colon, greater than 25 µM with NCI-H23 lung, 14.4 µM in the test with K-562 leukemia and greater than 25 µM with SN12C renal. Further, the TGI with HL-60(TB) leukemia, in the test on SF-539 CNS, in the test on NCI-H460 lung, in the test on SF-295 CNS, in the test with OVCAR-3 ovarian and in the test on 786-0 renal was greater than 25 µM throughout. Moreover, the TGI with HCC-2998 colon, in the test with NCI-H23 lung, in the test on K-562 leukemia and in the test with SN12C renal was greater than 25 µM each time.

Turning to `CC[C@@H](C(=O)[C@@H](C)[C@@H](O)[C@H](C)[C@@H]1O[C@@H]([C@@H](CC)C(=O)O)CC[C@@H]1C)[C@H]1O[C@]2(C=C[C@@H](O)[C@]3(CC[C@@](C)([C@H]4CC[C@](O)(CC)[C@H](C)O4)O3)O2)[C@H](C)C[C@@H]1C`, the GI50 is 0.14 µM in the test with HL-60(TB) leukemia; 0.806 µM in the test on SF-539 CNS; 0.441 µM in the test on NCI-H460 lung; 0.447 µM in the test on SF-295 CNS; 0.166 µM in the test on OVCAR-3 ovarian; 1.25 µM with 786-0 renal. The GI50 with HCC-2998 colon was 0.166 µM; with NCI-H23 lung, 0.528 µM; in the test with K-562 leukemia it was 0.207 µM; with SN12C renal, 0.226 µM. Further, the TGI with HL-60(TB) leukemia turned out to be 0.815 µM; with SF-539 CNS it was 5.27 µM; in the test on NCI-H460 lung, 11.9 µM; in the test on SF-295 CNS, 7.71 µM; in the test with OVCAR-3 ovarian, 25.8 µM; in the test on 786-0 renal, 19.2 µM. Further, the TGI with HCC-2998 colon is 13 µM; in the test on NCI-H23 lung, 11.4 µM; in the test on K-562 leukemia it was 5.72 µM; with SN12C renal, 44.8 µM.
